Source: patent US8232409B2, “Heterocyclic benzimidazoles as TRPM8 modulators” (Janssen Pharmaceutica N.V., priority 2008, dated 2012)
Counter-ions that a name gives are not always drawn.

Target: T1, canine TRPM8 (Canis lupus familiaris, UniProt Q1A7N1)
T1 construct: expressed in transfected cells
Assay: In vitro canine TRPM8 functional assay (icilin-induced intracellular Ca2+, FLIPR/FDSS);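 also: intracellular Ca2+ tracked with a Ca2+-sensitive fluorescent dye, compound applied 5 min before icilin was added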
Type: cell-based
Conditions: HEK293 cells stably expressing canine TRPM8; for inhibition at 0.2 µM: 0.200 μM compound, icilin challenge (~80% maximal response), read-out: % Inh. @ 0.200 μM; for IC50: icilin challenge, eight-point dose-response

T1 sequence (Q1A7N1 1-1104): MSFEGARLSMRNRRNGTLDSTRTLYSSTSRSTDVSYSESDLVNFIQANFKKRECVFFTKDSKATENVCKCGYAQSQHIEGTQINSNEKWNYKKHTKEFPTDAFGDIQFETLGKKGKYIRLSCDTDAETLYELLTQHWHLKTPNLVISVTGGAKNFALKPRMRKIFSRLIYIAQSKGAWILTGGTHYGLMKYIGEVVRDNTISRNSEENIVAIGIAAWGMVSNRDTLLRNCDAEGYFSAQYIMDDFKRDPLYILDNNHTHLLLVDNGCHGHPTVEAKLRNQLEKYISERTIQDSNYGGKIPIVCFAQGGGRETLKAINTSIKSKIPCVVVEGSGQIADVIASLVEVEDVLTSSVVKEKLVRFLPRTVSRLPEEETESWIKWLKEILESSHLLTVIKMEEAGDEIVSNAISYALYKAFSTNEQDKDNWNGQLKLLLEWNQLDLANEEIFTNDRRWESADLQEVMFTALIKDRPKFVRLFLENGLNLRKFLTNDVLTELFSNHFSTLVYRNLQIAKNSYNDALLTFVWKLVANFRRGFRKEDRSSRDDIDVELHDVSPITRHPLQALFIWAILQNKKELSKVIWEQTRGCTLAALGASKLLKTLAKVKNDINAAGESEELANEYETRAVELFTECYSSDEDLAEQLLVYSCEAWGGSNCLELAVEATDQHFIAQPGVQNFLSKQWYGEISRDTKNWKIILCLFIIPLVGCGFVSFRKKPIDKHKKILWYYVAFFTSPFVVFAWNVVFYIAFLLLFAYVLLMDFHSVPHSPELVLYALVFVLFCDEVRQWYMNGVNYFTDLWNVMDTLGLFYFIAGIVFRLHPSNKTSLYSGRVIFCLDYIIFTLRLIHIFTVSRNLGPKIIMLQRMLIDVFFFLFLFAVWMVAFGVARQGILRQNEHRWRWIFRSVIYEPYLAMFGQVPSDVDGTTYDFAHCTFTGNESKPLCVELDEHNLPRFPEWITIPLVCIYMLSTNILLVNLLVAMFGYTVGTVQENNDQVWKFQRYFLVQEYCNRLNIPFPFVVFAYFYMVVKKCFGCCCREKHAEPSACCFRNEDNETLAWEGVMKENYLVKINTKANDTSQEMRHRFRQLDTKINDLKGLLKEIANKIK

SMILES	inhibition at 0.2 µM [%]	IC50 [nM]
FC(F)(F)Oc1ccccc1-c1ccc2nc(C3=NC4(CCCCC4)CO3)[nH]c2c1 [Cpd 2, 2-[5-(2-Trifluoromethoxy-phenyl)-1H-benzimidazol-2-yl]-3-oxa-1-aza-spiro[4.5]dec-1-ene]	106	7
FC(F)(F)Oc1ccccc1-c1ccc2[nH]c(C3=NCC4(CCCCC4)O3)nc2c1 [Cpd 3, 2-[5-(2-Trifluoromethoxy-phenyl)-1H-benzimidazol-2-yl]-1-oxa-3-aza-spiro[4.5]dec-2-ene]	60	
FC(F)(F)c1ccccc1-c1ccc2[nH]c(C3=NCC4(CCCCC4)O3)nc2c1 [Cpd 4, 2-[5-(2-Trifluoromethyl-phenyl)-1H-benzimidazol-2-yl]-1-oxa-3-aza-spiro[4.5]dec-2-ene]	84	
FC(F)(F)c1ccccc1-c1ccc2[nH]c(C3=NOC4(CCOCC4)C3)nc2c1 [Cpd 9, 3-[5-(2-Trifluoromethylphenyl)-1H-benzimidazol-2-yl]-1,8-dioxa-2-aza-spiro[4.5]dec-2-ene]	101	
Fc1cc(-c2ccccc2C(F)(F)F)cc2nc(C3=NOC4(CCCCC4)C3)[nH]c12 [Cpd 14, 3-[7-Fluoro-5-(2-trifluoromethyl-phenyl)-1H-benzimidazol-2-yl]-1-oxa-2-aza-spiro[4.5]dec-2-ene hydrochloride]	102	
OCCCc1cc(-c2ccccc2C(F)(F)F)cc2nc(C3=NOC4(CCCCC4)C3)[nH]c12 [Cpd 22, 3-[2-(1-Oxa-2-aza-spiro[4.5]dec-2-en-3-yl)-6-(2-trifluoromethylphenyl)-3H-benzimidazol-4-yl]-propan-1-ol hydrochloride]	103	
Fc1ccccc1-c1ccc2[nH]c(C3=NOC4(CCCCC4)C3)nc2c1 [Cpd 23, 3-[5-(2-Fluoro-phenyl)-1H-benzimidazol-2-yl]-1-oxa-2-aza-spiro[4.5]dec-2-ene trifluoroacetic acid salt]	103	
Fc1cccc(F)c1-c1ccc2[nH]c(C3=NOC4(CCCCC4)C3)nc2c1 [Cpd 26, 3-[5-(2,6-Difluoro-phenyl)-1H-benzimidazol-2-yl]-1-oxa-2-aza-spiro[4.5]dec-2-ene trifluoroacetic acid salt]	100	

Other lines, results leading:

inhibition at 0.2 µM [%]	IC50 [nM]	SMILES
102	1.5	FC(F)(F)Cc1ccccc1-c1ccc2[nH]c(C3=NOC4(CCCCC4)C3)nc2c1 [Cpd 11, 3-{5-[2-(2,2,2-Trifluoroethyl)-phenyl]-1H-benzimidazol-2-yl}-1-oxa-2-aza-spiro[4.5]dec-2-ene]
102	3.9	CC1C(c2nc3cc(-c4ccccc4C(F)(F)F)ccc3[nH]2)=NOC12CCCCC2 (stereo not drawn) [Cpd 15, 4-Methyl-3-[5-(2-trifluoromethyl-phenyl)-1H-benzimidazol-2-yl]-1-oxa-2-aza-spiro[4.5]dec-2-ene hydrochloride]
103	1.8	Cc1cc(-c2ccccc2OC(F)F)cc2nc(C3=NOC4(CCCCC4)C3)[nH]c12 [Cpd 20, 3-[5-(2-Difluoromethoxyphenyl)-7-methyl-1H-benzimidazol-2-yl]-1-oxa-2-aza-spiro[4.5]dec-2-ene hydrochloride]
103	5.6	Cc1c(-c2ccccc2C(F)(F)F)ccc2[nH]c(C3=NOC4(CCCCC4)C3)nc12 [Cpd 24, 3-[4-Methyl-5-(2-trifluoromethyl-phenyl)-1H-benzimidazol-2-yl]-1-oxa-2-aza-spiro[4.5]dec-2-ene hydrochloride]
100	0.8	OC/C=C\c1cc(-c2ccccc2C(F)(F)F)cc2nc(C3=NOC4(CCCCC4)C3)[nH]c12 [Cpd 25, 3-[2-(1-Oxa-2-aza-spiro[4.5]dec-2-en-3-yl)-6-(2-trifluoromethylphenyl)-3H-benzimidazol-4-yl]-prop-2-en-1-ol]
71	100	FC(F)(F)c1ccccc1-c1ccc2[nH]c(C3=NC4(CCOCC4)CO3)nc2c1 [Cpd 29, 2-[5-(2-Trifluoromethyl-phenyl)-1H-benzimidazol-2-yl]-3,8-dioxa-1-aza-spiro[4.5]dec-1-ene]
